Source: patent US20240342199A1, “COMBINATION THERAPIES TARGETING MITOCHONDRIA FOR CANCER THERAPY” (The Wistar Institute of Anatomy and Biology, priority 2014, published 2024)

Key:
Assay type in all cases: cell-based, Human
[1] = tested on: LN229 cells; assay: High-throughput screening: cell viability (resazurin), compounds with DMSO or Gamitrinib; settings: for inhibition at 0.000128 µM / inhibition at 0.00064 µM / inhibition at 0.0032 µM / inhibition at […] / inhibition at 0.08 µM / inhibition at 0.4 µM / inhibition at 2 µM / inhibition at 10 µM: Homo sapiens, LN-229, read-out: Percent inhibition; for inhibition at 0.000128 µM: compound 0.000128 uM + DMSO (control); for inhibition at 0.00064 µM: compound 0.00064 uM + DMSO (control); for inhibition at 0.0032 µM: compound 0.0032 uM + DMSO (control); for inhibition at […]: compound 0.016 uM + DMSO (control); for inhibition at 0.08 µM: compound 0.08 uM + DMSO (control); for inhibition at 0.4 µM: compound 0.4 uM + DMSO (control); for inhibition at 2 µM: compound 2 uM + DMSO (control); for inhibition at 10 µM: compound 10 uM + DMSO (control)
Procedure: High-throughput screening and synergy experiments. Compounds for the molecular targeted cancer therapeutics were either purchased from SelleckChem or acquired under Material Transfer Agreement (MTA) with the Wistar Institute MTA. Compounds were suspended in DMSO. The purity and identity of the compounds was confirmed by LC/MS for a fraction of the compounds. Source plates with a 10 point dilution series (5-fold dilutions, ranging from 10-0.0001 μmol/L) were prepared for screening. […] Cell viability was determined by the addition of resazurin to a final concentration of 50 μM and incubation for 8 h. Fluorescence intensity (excitation, 560 nm, emission, 590 nm) was determined on an Envision Xcite Multilabel Reader (Perkin-Elmer), and the fractional growth inhibition was determined by normalizing assay wells to the aggregated average responses of positive control (10 μM doxorubicin) and negative control (0.2% DMSO) treatments (n=12).

[2] = tested on: Akt phosphorylation; assay: Akt phosphorylation in tumor cell lines by Western blotting; settings: PC3 cells, AZD6482 (10 μM), (0.4-2 μM) or BKM120 (0.4-2 μM), 48 h
[3] = tested on: LN229 or PC3 cells; assay: Analysis of bioenergetics (ATP, glucose, lactate, oxygen consumption); settings: PX-866 (10 μM), AZD6482 (10 μM) or GDC0941 (2 μM) for 48 h
[4] = compound 0.000128 uM + Gamitrinib (1 μM)
[5] = compound 0.00064 uM + Gamitrinib (1 μM)
[6] = compound 0.0032 uM + Gamitrinib (1 μM)
[7] = compound 0.08 uM + Gamitrinib (1 μM)
[8] = compound 0.4 uM + Gamitrinib (1 μM)
[9] = compound 2 uM + Gamitrinib (1 μM)
[10] = compound 10 uM + Gamitrinib (1 μM)
[11] = compound 2.56E−05 uM + DMSO (control)
[12] = compound 2.56E−05 uM + Gamitrinib (1 μM)
[13] = compound 5.12E−06 uM + DMSO (control)
[14] = compound 5.12E−06 uM + Gamitrinib (1 μM)
[15] = compound […] + Gamitrinib (1 μM)

Compound	inhibition at 0.000128 µM [1]	inhibition at 0.00064 µM [1]	inhibition at 0.0032 µM [1]	inhibition at […] [1]	inhibition at 0.08 µM [1]	inhibition at 0.4 µM [1]	inhibition at 2 µM [1]	inhibition at 10 µM [1]	Percent inhibition [1, 4]	Percent inhibition [1, 5]	Percent inhibition [1, 6]	Percent inhibition [1, 7]	Percent inhibition [1, 8]	Percent inhibition [1, 9]	Percent inhibition [1, 10]	Percent inhibition [1, 11]	Percent inhibition [1, 12]	Percent inhibition [1, 13]	Percent inhibition [1, 14]	Percent inhibition [1, 15]	also measured
Cc1cc([C@@H](C)Nc2ccccc2C(=O)O)c2nc(N3CCOCC3)cc(=O)n2c1 [AZD6482]	11.8%	-10.5%	-4.1%	10.8%	21.7%	-7.43%	5.91%	43.4%	123.03%	128.16%	123.40%	111.71%	114.08%	133.90%	141.10%	−2.03%	119.70%	3.23%	129.84%	118.13%	Akt phosphorylation [2]: Akt phosphorylation was observed; ATP production [3]: reduced ATP production; glucose utilization [3]: less glucose utilization; lactate production [3]: less
CS(=O)(=O)N1CCN(Cc2cc3nc(-c4cccc5[nH]ncc45)nc(N4CCOCC4)c3s2)CC1 [GDC0941]	-14.7%	7.03%	-17.3%	-0.14%	21.2%	29.8%	58.9%	64.8%	124.43%	133.55%	19.20%	121.46%	134.46%	140.39%	156.27%	−27.15%	104.45%	0.41%	125.94%	126.85%	Akt phosphorylation [2]: Akt phosphorylation was observed; ATP production [3]: reduced ATP production; glucose utilization [3]: less glucose utilization; lactate production [3]: less
Nc1cc(C(F)(F)F)c(-c2cc(N3CCOCC3)nc(N3CCOCC3)n2)cn1 [BKM120]	4.38%	16.2%	3.42%	8.78%	17.7%	50.4%	54.9%	61.7%	132.78%	130.27%	140.77%	153.91%	150.75%	151.13%	152.02%	19.80%	136.65%	14.64%	130.32%	138.62%	Akt phosphorylation [2]: Akt phosphorylation was observed
